Patent publication US10576086B2, “Triazine derivatives as interferon-gamma inhibitors” (University of Greenwich, priority 2015, dated 2020)

Test system: IFN-γ production in human peripheral blood mononuclear cells (PBMCs)
Assay: Experiment 1: IFN-γ production by PHA-stimulated human PBMCs, ELISA
Assay type: cell-based
Details: for IFN-γ Concentration: PHA 5 μg/ml; for IFN-γ Concentration, Mean: 24 h
Description: The ex vivo activity of various compounds towards suppression of IFN-γ production in human peripheral blood mononuclear cells (PBMCs) was studied.
[…] They were not taking any other prescribed medication that could interfere with the results.
The blood was transferred into 50 ml centrifuge tubes (Corning, USA) containing heparin sodium salt 37.5 mg heparin powder diluted in 300-500 μl phosphate buffered saline (PBS) for 50 ml blood), and centrifuged at 2000 rpm for 10 minutes, and the plasma portion was separated. The plasma was further centrifuged at 3000 rpm for 10 minutes, and the supernatant separated and kept for later use.
The blood cells from the initial centrifugation were diluted with an equal volume of RPMI-1640 (Sigma, UK), and layered (2:1) onto Lymphoprep (Axis-Shield, Norway) in 25 ml universal tubes (Bibby Sterilin, UK) for density gradient centrifugation at 2500 rpm for 30 minutes.
PBMCs (lymphocytes and monocytes) were then removed from the interface, diluted in an equal volume of RPMI-1640 and washed twice by centrifugation at 3000 rpm for 10 minutes.
For testing, the PBMCs were re-suspended in a known volume of culture medium containing RPMI-1640 supplemented with 2 mM L-glutamine, 100 U penicillin, and 100 μg streptomycin (Sigma, UK).
The cell count was determined by the use of a haemocytometer using 10 μl of the cell suspension. The number of cells was determined based on a count in 5 random 1 mm squares.
The cell solution was then diluted with the supplemented RPMI-1640 medium to ensure a cell count of 2×10^6 cells/ml.
The PBMC suspension was added to tissue culture tubes (Bibby Sterilin, UK) with 5% autologous plasma, 5 μg/mlphytohaemaglutinin (PHA) to stimulate T-lymphocyte IFN-γ production, and a solution containing various concentrations of the compound to be studied. A control containing no compound was also cultured for each subject.
In the case of lamotrigine, the isethionate salt was used, and diluted with RPMI-1640 to produce 100 μM, 30 μM, 10 μM and 3 μM solutions that were tested on PBMCs from the first three subjects. With PBMC's from the other two subjects, a 300 μM solution was also tested.
For sipatrigine, the mesylate salt was used, and diluted with RPMI-1640 to produce 30 μM, 10 μM, 3 μM and 1 μM solutions. It was tested on PBMCs from the first three subjects only.
The tubes were incubated at 37° C. for 24 hours under a 5% CO2 atmosphere. After incubation, the cells (>75% viable according to trypan blue test) were centrifuged at 3000 prm for 10 minutes, and the cell-free supernatants were collected and stored at −70° C. before analysis for IFN-γ.
Levels of IFN-γ produced by the PBMCs were determined by the DuoSet ELISA Development system for human IFN-γ (RD Systems, UK), with a sensitivity of 15.6-1000 pg/ml.
Capture antibody, detection antibody, standard and streptavidin-HRP (streptavidin conjugated to horseradish peroxidase) were provided. A 96-well microtitre plate (Corning CoStar, flat bottom, polystyrene, high binding microtitre plate, UK) was coated with 100 μl per well of capture antibody (mouse anti-human IFN-γ at 4.0 μg/ml), sealed and incubated overnight. Unbound capture antibody was washed from the wells three times, using a wash buffer (0.05% Tween 20 in PBS). Block buffer (1% bovine serum albumin (BSA) in PBS) was then added. After incubation for 1 hour, the wells were washed, and sample culture supernatants or standards were added. A 7-point standard curve (in the range 15.6-1000 pg/ml) was produced from […] recombinant human IFN-γ using 2-fold serial dilutions in reagent diluent (0.1% BSA, 0.05% Tween 20 in tris-buffered saline (20 mM Trizma base, 150 mM NaCl)). The sealed plates were left to incubate for 2 hours.
After further washing, the detection antibody (biotinylated goat anti-human IFN-γ at 175 ng/ml) was added, and the plates sealed and incubated for a further 2 hours. […]

In the case of `Nc1nnc(-c2cccc(Cl)c2Cl)c(N)n1` [Lamotrigine, 3,5-diamino-6-(2,3-dichlorophenyl)-1,2,4-triazine], the “IFN-γ Concentration” value (3 μM, Subject 1, 24 h) was 1153.13 pg/mL, the “IFN-γ Concentration” value (3 μM, Subject 2, 24 h) was 1238.68 pg/mL and the “IFN-γ Concentration” value (3 μM, Subject 3, 24 h) was 1641.69 pg/mL. The “IFN-γ Concentration” value (3 μM, Subject 4, 24 h) was 937.30 pg/mL, the “IFN-γ Concentration” value (3 μM, Subject 6, 24 h) was 1305.54 pg/mL and the “IFN-γ Concentration, Mean” value (3 μM, mean of five subjects) was 1255.27 pg/mL. For the same compound, the “IFN-γ Concentration” value (10 μM, Subject 1, 24 h) was 923.32 pg/mL, the “IFN-γ Concentration” value (10 μM, Subject 2, 24 h) was 1307.46 pg/mL and the “IFN-γ Concentration” value (10 μM, Subject 3, 24 h) was 1180.21 pg/mL. For the same compound, the “IFN-γ Concentration” value (10 μM, Subject 4, 24 h) was 895.04 pg/mL, the “IFN-γ Concentration” value (10 μM, Subject 6, 24 h) was 1227.25 pg/mL and the “IFN-γ Concentration, Mean” value (10 μM, mean of five subjects) was 1106.66 pg/mL. The “IFN-γ Concentration” value (30 μM, Subject 1, 24 h) was 872.99 pg/mL, the “IFN-γ Concentration” value (30 μM, Subject 2, 24 h) was 1089.69 pg/mL and the “IFN-γ Concentration” value (30 μM, Subject 3, 24 h) was 897.48 pg/mL. For the same compound, the “IFN-γ Concentration” value (30 μM, Subject 4, 24 h) was 853.66 pg/mL, the “IFN-γ Concentration” value (30 μM, Subject 6, 24 h) was 1191.37 pg/mL and the “IFN-γ Concentration, Mean” value (30 μM, mean of five subjects) was 981.04 pg/mL. For the same compound, the “IFN-γ Concentration” value (100 μM, Subject 1, 24 h) was 834.21 pg/mL, the “IFN-γ Concentration” value (100 μM, Subject 2, 24 h) was 886.41 pg/mL and the “IFN-γ Concentration” value (100 μM, Subject 3, 24 h) was 392.96 pg/mL. For the same compound, the “IFN-γ Concentration” value (100 μM, Subject 4, 24 h) was 775.28 pg/mL, the “IFN-γ Concentration” value (100 μM, Subject 6, 24 h) was 1095.88 pg/mL and the “IFN-γ Concentration, Mean” value (100 μM, mean of five subjects) was 796.95 pg/mL. For the same compound, the “IFN-γ Concentration” value (300 μM, Subject 4, 24 h) was 495.48 pg/mL, the “IFN-γ Concentration” value (300 μM, Subject 6, 24 h) was 798.32 pg/mL and the “IFN-γ Concentration, Mean” value (300 μM, mean of two subjects) was 646.90 pg/mL. For the same compound, the “inhibition of IFN-γ production, trend” value (300 μM, two subjects, no significance value calculated) was “continuing trend towards further increased inhibition”, the “inhibition of IFN-γ production, significance recalculated without subject 3” value (10, 30 and 100 μM, four subjects) was “statistically significant (P<0.05) inhibition of IFN-γ production” and the “inhibition of IFN-γ production (in words)” value (Experiment 1, human PBMCs) was “inhibits the amount of IFN-γ produced by the PBMCs”. For the same compound, the “reduction in IFN-γ production” value (Subject 3, 100 μM) was 75% and the “reduction of IFN-γ produced by PBMCs, significance vs control” value (concentrations of 10 to 100 μM, paired Student's t-test) was “statistically significant (P<0.05) reductions”.
